Assay results published in patent US11197862B2, “Methods of preventing toxicity of platinum drugs” (XOMICS BIOPHARMA, INC., priority 2015, dated 2021).

Experiments:
OCT2 [1] = biological target: T1, OCT2 (Homo sapiens, UniProt O15244); assay: Inhibition of OCT2-mediated oxaliplatin uptake in transfected MDCK-II cells (protein-free HBSS)
T1 sequence (O15244 1-555): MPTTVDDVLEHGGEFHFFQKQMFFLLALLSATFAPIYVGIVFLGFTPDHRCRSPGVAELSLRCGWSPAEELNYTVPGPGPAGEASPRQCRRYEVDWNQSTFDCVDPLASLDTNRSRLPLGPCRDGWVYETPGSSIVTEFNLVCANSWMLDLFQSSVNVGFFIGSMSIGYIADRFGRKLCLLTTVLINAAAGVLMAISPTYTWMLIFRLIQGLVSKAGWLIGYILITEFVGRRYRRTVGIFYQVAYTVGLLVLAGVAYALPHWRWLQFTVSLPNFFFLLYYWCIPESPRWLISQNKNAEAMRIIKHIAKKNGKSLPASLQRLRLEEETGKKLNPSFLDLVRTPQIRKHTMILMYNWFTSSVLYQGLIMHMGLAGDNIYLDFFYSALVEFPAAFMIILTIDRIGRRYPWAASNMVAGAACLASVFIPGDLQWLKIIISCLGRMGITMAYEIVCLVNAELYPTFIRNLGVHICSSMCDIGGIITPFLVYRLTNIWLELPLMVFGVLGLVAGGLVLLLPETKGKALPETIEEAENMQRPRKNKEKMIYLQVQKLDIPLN
Excerpt: Fully confluent MDCK cell monolayers were transfected with either cDNA plasmids encoding the human transporter to be tested or a GFP control. […] The cells were then washed with ice-cold PBS and lysed with 50:50 acetonitrile:H2O. Intracellular content of the substrate was quantified by LC/MS/MS or a MicroBeta radiometric plate reader.

[2] = test system: Balb/c mice exposed to acute treatment with Oxaliplatin; assay: Dynamic test (mechanical pain threshold) after a single oxaliplatin administration; format: in vivo, mouse; details: 24 hours after single OXA 3.5 mg/kg iv; DTG 4 mg/kg ip 1 hour before; CPC 4 mg/kg iv co-administered; listed as CPC
Method: OXA vehicle, OXA, CPC, DTG, DTG+OXA and CPC+OXA were administered once time. In the group co-administered with OXA and DTG. DTG was injected intraperitoneally 1 hour before the administration of OXA. In the group co-administered with OXA and CPC, CPC was co-administered with OXA intravenously. Mechanical allodynia and cold sensory threshold (dynamic test and cold plate test) were performed 24 and 48 hours after the treatment, respectively, using the methods described in EXAMPLE 15 Plasma Sample Collection

OCT2 [3] = biological target: T1, OCT2

Q: With `NC(=O)OCC(O)COc1ccc(Cl)cc1` (stereo not drawn) [Chlorphenesin Carbamate] as the molecule, how does the “fold less potent as inhibitor of OCT2-mediated metformin and oxaliplatin uptake than of ASP+ uptake” value (OCT2 [1]; comparison of Table 1 potencies) read?
A: Its value is “more than 100 fold”.

Q: What about the inhibition at 30 min, 5 μM (OCT2 [1]; human) of the same molecule?
A: The inhibition at 30 min, 5 μM was 28%.

Q: What about the inhibition at 30 min, 50 μM (OCT2 [1]; human) of the same molecule?
A: Its inhibition at 30 min, 50 μM is 36%.

Q: And the potency estimated from few doses at 30 min (OCT2 [1]; human, IC50 (μM) (substrate Oxaliplatin))?
A: The potency estimated from few doses at 30 min was 90.4 µM.

Q: And the “Mechanical Pain Threshold (MPT), mechanical hypersensitivity” value [2]?
A: Its value is “no such effect”.

Q: And the “IC50 (μM) (substrate Metformin)” value (OCT2 [3])?
A: The value was “no”.
